Laboratory results reported in patent publication US7767118B2, “Nanoparticles from supercritical fluid antisolvent process using particle growth and agglomeration retardants” (Ferro Corporation, priority 2003, dated 2010).

Legend:
[1] = Scanning electron micrographs of the particles formed in the Example; assay type: physicochemical; settings: particles precipitated from acetone into SC-CO2 at 40° C., 80 bar with alpha D glucose penta acetate as growth retardant; FIGS. 4A and 4B; substantially uniform in size, circular in shape
From the text: FIGS. 4A and 4B are scanning electron micrographs of the acetaminophen particles formed in the Example at two magnifications. […] Some minimal particle agglomeration or bridging is apparent.

[2] = Particle size distribution by laser light scattering; assay type: physicochemical; settings: FIG. 5, standard deviation 1.87 microns, particles precipitated in SC-CO2 at 40° C., 80 bar with alpha D glucose penta acetate
Method: The mean diameter of the acetaminophen particles formed in the Example was measured using the conventional laser light scattering technique, which is known in the art. FIG. 5 is a graph showing the size distribution of particles. The mean volume diameter of the particles was 4.08 microns and the standard deviation was 1.87 microns.

particle size (scanning electron micrographs) [1]: 1-2 microns
mean volume diameter of the particles [2]: 4.08 microns
Structure (SMILES): CC(=O)Nc1ccc(O)cc1 [acetaminophen]
